Assay results taken from PubChem BioAssay (NCI).
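Growth conditions: 96-well plates. Treatment: test compound, 48 hours, 5 concentrations. Analysis: linear interpolation between bracketing concentrations; unreached endpoints set to highest concentration. GI50: concentration for 50% inhibition of growth. At the TGI there is no net growth.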

Columns and labels:
Assay in all cases: inhibition of tumour cell growth, NCI panel, 48 h
SF-268 CNS = test system: SF-268 CNS
SK-MEL-2 melanoma = test system: SK-MEL-2 melanoma
NCI-H226 lung = test system: NCI-H226 lung
NCI-H23 lung = test system: NCI-H23 lung
MDA-MB-435 = test system: MDA-MB-435
KM12 colon = test system: KM12 colon
SF-539 CNS = test system: SF-539 CNS
LOX IMVI melanoma = test system: LOX IMVI melanoma
SNB-19 CNS = test system: SNB-19 CNS
PC-3 prostate = test system: PC-3 prostate
NCI/ADR-RES ovarian = test system: NCI/ADR-RES ovarian
HCC-2998 colon = test system: HCC-2998 colon
HL-60(TB) leukemia = test system: HL-60(TB) leukemia
UO-31 renal = test system: UO-31 renal
TK-10 renal = test system: TK-10 renal
SN12C renal = test system: SN12C renal
OVCAR-5 ovarian = test system: OVCAR-5 ovarian
SF-295 CNS = test system: SF-295 CNS
SK-OV-3 ovarian = test system: SK-OV-3 ovarian
OVCAR-8 ovarian = test system: OVCAR-8 ovarian
COLO 205 colon = test system: COLO 205 colon
CAKI-1 renal = test system: CAKI-1 renal
OVCAR-3 ovarian = test system: OVCAR-3 ovarian
HCT-15 colon = test system: HCT-15 colon
HT29 colon = test system: HT29 colon
MCF7 breast = test system: MCF7 breast
SNB-75 CNS = test system: SNB-75 CNS
M14 melanoma = test system: M14 melanoma
HOP-62 NSCLC = test system: HOP-62 NSCLC
A549 NSCLC = test system: A549 NSCLC
786-0 renal = test system: 786-0 renal
HCT-116 colon = test system: HCT-116 colon
NCI-H522 lung = test system: NCI-H522 lung
OVCAR-4 ovarian = test system: OVCAR-4 ovarian
CCRF-CEM leukemia = test system: CCRF-CEM leukemia
NCI-H460 lung = test system: NCI-H460 lung
UACC-62 melanoma = test system: UACC-62 melanoma
DU-145 prostate = test system: DU-145 prostate
ACHN renal = test system: ACHN renal
U251 CNS = test system: U251 CNS
MDA-MB-231 breast = test system: MDA-MB-231 breast
K-562 leukemia = test system: K-562 leukemia
SK-MEL-28 melanoma = test system: SK-MEL-28 melanoma
HOP-92 NSCLC = test system: HOP-92 NSCLC
BT-549 breast = test system: BT-549 breast
SK-MEL-5 melanoma = test system: SK-MEL-5 melanoma
MOLT-4 leukemia = test system: MOLT-4 leukemia
UACC-257 melanoma = test system: UACC-257 melanoma
IGROV1 ovarian = test system: IGROV1 ovarian
SR leukemia = test system: SR leukemia
MALME-3M melanoma = test system: MALME-3M melanoma
SW-620 colon = test system: SW-620 colon
A498 renal = test system: A498 renal
HS 578T breast = test system: HS 578T breast
MDA-MB-468 breast = test system: MDA-MB-468 breast
EKVX NSCLC = test system: EKVX NSCLC
RPMI-8226 leukemia = test system: RPMI-8226 leukemia

**Q.** How did the GI50 (SF-268 CNS) turn out when `Cn1cc(-c2nc(N)nnc2-c2c[nH]c3ccccc23)c2cc(Br)cnc21` was run?
**A.** 340 nM

**Q.** What about the TGI (SF-268 CNS) of the same compound?
**A.** 25500 nM

**Q.** And the GI50 (SK-MEL-2 melanoma)?
**A.** 40.9 nM

**Q.** What about the TGI (SK-MEL-2 melanoma) of the same compound?
**A.** 14300 nM

**Q.** What about the GI50 (NCI-H226 lung) of the same compound?
**A.** 50.9 nM

**Q.** What about the TGI (NCI-H226 lung) of the same compound?
**A.** 2700 nM

**Q.** And the GI50 (NCI-H23 lung)?
**A.** 73.8 nM

**Q.** What about the TGI (NCI-H23 lung) of the same compound?
**A.** 10400 nM

**Q.** What about the GI50 (MDA-MB-435) of the same compound?
**A.** 16.7 nM

**Q.** And the TGI (MDA-MB-435)?
**A.** 52.5 nM

**Q.** What about the GI50 (KM12 colon) of the same compound?
**A.** 50.6 nM

**Q.** What about the TGI (KM12 colon) of the same compound?
**A.** 13900 nM

**Q.** What about the GI50 (SF-539 CNS) of the same compound?
**A.** 32.3 nM

**Q.** What about the TGI (SF-539 CNS) of the same compound?
**A.** 175 nM

**Q.** What about the GI50 (LOX IMVI melanoma) of the same compound?
**A.** 43.5 nM

**Q.** What about the TGI (LOX IMVI melanoma) of the same compound?
**A.** 15800 nM

**Q.** What about the GI50 (SNB-19 CNS) of the same compound?
**A.** 63.2 nM

**Q.** And the TGI (SNB-19 CNS)?
**A.** 10400 nM

**Q.** What about the GI50 (PC-3 prostate) of the same compound?
**A.** 56 nM

**Q.** What about the TGI (PC-3 prostate) of the same compound?
**A.** 47900 nM

**Q.** And the GI50 (NCI/ADR-RES ovarian)?
**A.** 92.4 nM

**Q.** What about the TGI (NCI/ADR-RES ovarian) of the same compound?
**A.** 776 nM

**Q.** What about the GI50 (HCC-2998 colon) of the same compound?
**A.** 84.1 nM

**Q.** And the TGI (HCC-2998 colon)?
**A.** 3470 nM

**Q.** What about the GI50 (HL-60(TB) leukemia) of the same compound?
**A.** 26.5 nM

**Q.** What about the TGI (HL-60(TB) leukemia) of the same compound?
**A.** 100 nM

**Q.** And the GI50 (UO-31 renal)?
**A.** 71.1 nM

**Q.** And the TGI (UO-31 renal)?
**A.** 15200 nM

**Q.** And the GI50 (TK-10 renal)?
**A.** 5950 nM

**Q.** And the TGI (TK-10 renal)?
**A.** 34200 nM

**Q.** What about the GI50 (SN12C renal) of the same compound?
**A.** 58.9 nM

**Q.** What about the TGI (SN12C renal) of the same compound?
**A.** 14300 nM

**Q.** And the GI50 (OVCAR-5 ovarian)?
**A.** 72.9 nM

**Q.** And the TGI (OVCAR-5 ovarian)?
**A.** 15500 nM

**Q.** And the GI50 (SF-295 CNS)?
**A.** 29.4 nM

**Q.** And the TGI (SF-295 CNS)?
**A.** 1190 nM

**Q.** And the GI50 (SK-OV-3 ovarian)?
**A.** 48.7 nM

**Q.** And the TGI (SK-OV-3 ovarian)?
**A.** 21200 nM

**Q.** What about the GI50 (OVCAR-8 ovarian) of the same compound?
**A.** 63.4 nM

**Q.** What about the TGI (OVCAR-8 ovarian) of the same compound?
**A.** 4700 nM

**Q.** And the GI50 (COLO 205 colon)?
**A.** 41.4 nM

**Q.** And the TGI (COLO 205 colon)?
**A.** 280 nM

**Q.** And the GI50 (CAKI-1 renal)?
**A.** 53.5 nM

**Q.** What about the TGI (CAKI-1 renal) of the same compound?
**A.** 17100 nM

**Q.** And the GI50 (OVCAR-3 ovarian)?
**A.** 39 nM

**Q.** And the TGI (OVCAR-3 ovarian)?
**A.** 692 nM

**Q.** What about the GI50 (HCT-15 colon) of the same compound?
**A.** 37.6 nM

**Q.** And the TGI (HCT-15 colon)?
**A.** 10700 nM

**Q.** What about the GI50 (HT29 colon) of the same compound?
**A.** 34.7 nM

**Q.** And the TGI (HT29 colon)?
**A.** 1230 nM

**Q.** What about the GI50 (MCF7 breast) of the same compound?
**A.** 27.5 nM

**Q.** And the TGI (MCF7 breast)?
**A.** 10600 nM

**Q.** And the GI50 (SNB-75 CNS)?
**A.** 30.2 nM

**Q.** What about the TGI (SNB-75 CNS) of the same compound?
**A.** 18300 nM

**Q.** And the GI50 (M14 melanoma)?
**A.** 52.6 nM

**Q.** And the TGI (M14 melanoma)?
**A.** 2060 nM

**Q.** What about the GI50 (HOP-62 NSCLC) of the same compound?
**A.** 56.4 nM

**Q.** And the TGI (HOP-62 NSCLC)?
**A.** 21200 nM

**Q.** And the GI50 (A549 NSCLC)?
**A.** 62.5 nM

**Q.** What about the TGI (A549 NSCLC) of the same compound?
**A.** 19300 nM

**Q.** What about the GI50 (786-0 renal) of the same compound?
**A.** 53.7 nM

**Q.** And the TGI (786-0 renal)?
**A.** 15600 nM

**Q.** What about the GI50 (HCT-116 colon) of the same compound?
**A.** 44.1 nM

**Q.** And the TGI (HCT-116 colon)?
**A.** 6510 nM

**Q.** What about the GI50 (NCI-H522 lung) of the same compound?
**A.** 12.5 nM

**Q.** What about the TGI (NCI-H522 lung) of the same compound?
**A.** 79.7 nM

**Q.** What about the GI50 (OVCAR-4 ovarian) of the same compound?
**A.** 2700 nM

**Q.** What about the TGI (OVCAR-4 ovarian) of the same compound?
**A.** 36800 nM

**Q.** What about the GI50 (CCRF-CEM leukemia) of the same compound?
**A.** 33.4 nM

**Q.** What about the TGI (CCRF-CEM leukemia) of the same compound?
**A.** > 35500 nM

**Q.** What about the GI50 (NCI-H460 lung) of the same compound?
**A.** 46.2 nM

**Q.** And the TGI (NCI-H460 lung)?
**A.** 1350 nM

**Q.** And the GI50 (UACC-62 melanoma)?
**A.** 29.4 nM

**Q.** And the TGI (UACC-62 melanoma)?
**A.** 7680 nM

**Q.** What about the GI50 (DU-145 prostate) of the same compound?
**A.** 87.7 nM

**Q.** And the TGI (DU-145 prostate)?
**A.** 22400 nM

**Q.** What about the GI50 (ACHN renal) of the same compound?
**A.** 74.3 nM

**Q.** What about the TGI (ACHN renal) of the same compound?
**A.** 16900 nM

**Q.** And the GI50 (U251 CNS)?
**A.** 40.2 nM

**Q.** And the TGI (U251 CNS)?
**A.** 6710 nM

**Q.** And the GI50 (MDA-MB-231 breast)?
**A.** 69.7 nM

**Q.** And the TGI (MDA-MB-231 breast)?
**A.** 11700 nM

**Q.** And the GI50 (K-562 leukemia)?
**A.** 35.7 nM

**Q.** What about the TGI (K-562 leukemia) of the same compound?
**A.** > 100000 nM

**Q.** And the GI50 (SK-MEL-28 melanoma)?
**A.** 364 nM

**Q.** What about the TGI (SK-MEL-28 melanoma) of the same compound?
**A.** 19200 nM

**Q.** And the GI50 (HOP-92 NSCLC)?
**A.** 3890 nM

**Q.** And the TGI (HOP-92 NSCLC)?
**A.** 25500 nM

**Q.** What about the GI50 (BT-549 breast) of the same compound?
**A.** 29 nM

**Q.** What about the TGI (BT-549 breast) of the same compound?
**A.** 5670 nM

**Q.** What about the GI50 (SK-MEL-5 melanoma) of the same compound?
**A.** 30.1 nM

**Q.** What about the TGI (SK-MEL-5 melanoma) of the same compound?
**A.** 1190 nM

**Q.** What about the GI50 (MOLT-4 leukemia) of the same compound?
**A.** 50.5 nM

**Q.** What about the TGI (MOLT-4 leukemia) of the same compound?
**A.** 19200 nM

**Q.** What about the GI50 (UACC-257 melanoma) of the same compound?
**A.** 42.1 nM

**Q.** And the TGI (UACC-257 melanoma)?
**A.** 21800 nM

**Q.** What about the GI50 (IGROV1 ovarian) of the same compound?
**A.** 72.1 nM

**Q.** And the TGI (IGROV1 ovarian)?
**A.** 15200 nM

**Q.** And the GI50 (SR leukemia)?
**A.** 30.9 nM

**Q.** What about the TGI (SR leukemia) of the same compound?
**A.** > 100000 nM

**Q.** And the GI50 (MALME-3M melanoma)?
**A.** 46.6 nM

**Q.** What about the TGI (MALME-3M melanoma) of the same compound?
**A.** 18500 nM

**Q.** And the GI50 (SW-620 colon)?
**A.** 37.6 nM

**Q.** And the TGI (SW-620 colon)?
**A.** 13200 nM

**Q.** And the GI50 (A498 renal)?
**A.** 15600 nM

**Q.** What about the TGI (A498 renal) of the same compound?
**A.** 29700 nM

**Q.** What about the GI50 (HS 578T breast) of the same compound?
**A.** 31.9 nM

**Q.** What about the TGI (HS 578T breast) of the same compound?
**A.** 33700 nM

**Q.** What about the GI50 (MDA-MB-468 breast) of the same compound?
**A.** 20 nM

**Q.** What about the TGI (MDA-MB-468 breast) of the same compound?
**A.** 51.8 nM

**Q.** What about the GI50 (EKVX NSCLC) of the same compound?
**A.** 94.9 nM

**Q.** And the TGI (EKVX NSCLC)?
**A.** 20700 nM

**Q.** And the GI50 (RPMI-8226 leukemia)?
**A.** 70.8 nM

**Q.** What about the TGI (RPMI-8226 leukemia) of the same compound?
**A.** > 45500 nM
